Test results published in patent US6916802B2, “Amino ceramide-like compounds and therapeutic methods of use” (Genzyme Corporation, priority 2002, dated 2005).
Where “and” joins values, the source holds several entries; their conditions need not be identical. Equal values may be shown once. Marks after values point to notes of the source that are not given here.

Tests used:
[1] = system: UMSCC-10A head and neck squamous carcinoma cells; test: Tumor cell growth in vitro (sulforhodamine B), UMSCC-10A; format: cell-based, human; conditions: rounded off to one digit, read-out: Inhibition of tumor cell growth in vitro, IC50
Method: Growth of cell lines. Comparisons of different inhibitors with regard to suppression of human cancer cell growth were made by the University of Michigan Cancer Center in vitro Drug Evaluation Core Laboratory. MCF-7 breast carcinoma cells, HT-29 colon adenocarcinoma cells, H-460 lung large cell carcinoma cells, and 9L brain gliosarcoma cells were grown in RPMI 1640 medium with 5% fetal bovine serum, 2 mM glutamine, 50 units/ml of penicillin, […] of streptomycin, and 0.1 mg/ml of neomycin. UMSCC-10A head and neck squamous carcinoma cells were grown in minimal essential medium with Earle salts and the same supplements. Medium components were from Sigma Chemical Co. Cells were plated in 96-well microtiter plates (1000 cells/well for H-460 and 9L cells, and 2000 cells/well for the other lines), and the test compounds were added 1 day later. The stock inhibitor solutions, 2 mM in 2 mM BSA, were diluted with different amounts of additional 2 mM BSA, then each solution was diluted 500-fold with growth medium to obtain the final concentrations indicated in the Figures and Tables.
Five days after plating the H-460 and 9L cells, or 6 days for the other lines, cell growth was evaluated by staining the adhering cells with sulforhodamine B and measuring the absorbance at 520 nm (Skehan, P. et al., “New Colorimetric Cytotoxicity Assay for Anticancer-Drug Screening,” J. Natl. Cancer Inst., 82:1107-1112 (1990)). The absorbance of the treated cultures is reported as percent of that of control cultures, to provide an estimate of the fraction of the cells that survived, or of inhibition of growth rate.

[2] = system: MDCK cells; test: Lipid changes in MDCK cells (GlcCer, ceramide, diacylglycerol); format: cell-based, canine; conditions: for level of GlcCer, estimated visually (TLC): 24 h incubation; for Ceramide / Diglyceride: diglyceride kinase method
Method: TLC of the cell lipids was run with C-M-W 24:7:1 (solvent D) or 60:35:8 (solvent E).
Ceramide accumulation was similar for both stereoisomers (data not shown). An unexpected finding is that noticeable ceramide accumulation appeared only at inhibitor concentrations that were more than enough to bring GlcCer levels to a very low point (e.g., at 2 or 4 μM). The changes in ceramide concentration were quantitated in a separate experiment by the diglyceride kinase method, which allows one to also determine diacylglycerol (DAG) concentration (Preiss, J. E. et al., “Quantitative Measurement of SN-1,2-Diacylglycerols Present in Platelets, Hepatocytes, and Ras- and Sis-Transformed Normal Rat Kidney Cells,” J. Biol. Chem., 261:8597-8600 (1986)). The results (Table 5) are similar to the visually estimated ones: at 0.4 μM BML-129 or -130 there was little effect on ceramide content but at 4 μM inhibitor, a substantial increase was observed. (While the duplicate protein contents per incubation dish were somewhat erratic in the high-dose dishes, in which growth was slow, the changes were nevertheless large and clear.) Accumulation of ceramide had previously been observed with PDMP, at a somewhat higher level of inhibitor in the medium (Shayman, J. A. et al., “Modulation of Renal Epithelial Cell Growth by Glucosylceramide: Association with Protein Kinase C, Sphingosine, and Diacylglyceride,” J. Biol. Chem., 266:22968-22974 (1991)). From the data for cellular protein per incubation dish, it can be seen that there was no growth inhibition at the 0.4 μM level with either compound but substantial inhibition at the 4 μM level, especially with the glucosyltransferase inhibitor, BML-130. This finding is similar to the ones made in longer incubations with human cancer cells.

[3] = system: Acid SMase; test: Acid sphingomyelinase of MDCK cells; format: biochemical, canine
Method: Acid and neutral SMase assays were based on the procedures of Gatt et al. (Gatt, S. et al., “Assay of Enzymes of Lipid Metabolism With Colored and Fluorescent Derivatives of Natural Lipids,” Meth. Enzymol., 72:351-375 (1981)), using liposomes containing NBD-SM dispersed like the labeled ceramide (10 μM substrate and 30 μM lecithin). The assay medium for the neutral enzyme also contained 50 mM Tris-Cl^− (pH 7.4), 25 mM KCl, 5 mM MgCl2 and 0.29 mg of MDCK cell protein in a total volume of 0.25 ml. Incubation was at 37° C. for 30 min in the ultrasonic bath, then the fluorescent product, NBD-ceramide, was isolated by partitioning the assay mixture with 0.45 ml 2-propanol, 1.5 ml heptane, and 0.2 ml water. After centrifugation, a trace of contaminating NBD-SM was removed from 0.9 ml of the upper layer by washing with 0.35 ml water. The upper layer was analyzed with a fluorometer (460 nm excitation, 515 nm emission).
[…] The resultant ceramide was determined as above.

[4] = system: Neutral sphingomyelinase (SMase); test: Neutral sphingomyelinase of MDCK cells; format: biochemical, canine
Method: Acid and neutral SMase assays were based on the procedures of Gatt et al. (Gatt, S. et al., “Assay of Enzymes of Lipid Metabolism With Colored and Fluorescent Derivatives of Natural Lipids,” Meth. Enzymol., 72:351-375 (1981)), using liposomes containing NBD-SM dispersed like the labeled ceramide (10 μM substrate and 30 μM lecithin). […] Incubation was at 37° C. for 30 min in the ultrasonic bath, then the fluorescent product, NBD-ceramide, was isolated by partitioning the assay mixture with 0.45 ml 2-propanol, 1.5 ml heptane, and 0.2 ml water. After centrifugation, a trace of contaminating NBD-SM was removed from 0.9 ml of the upper layer by washing with 0.35 ml water. The upper layer was analyzed with a fluorometer (460 nm excitation, 515 nm emission).

[5] = system: Sphingomyelin synthase; test: Sphingomyelin synthase of MDCK homogenate; format: biochemical, canine
Method: Sphingomyelin synthase was evaluated with 44 μM [^14C]decanoyl sphingosine (10^5 cpm) dispersed with 136 μM dioleoyllecithin as in the ceramide synthase assay, and 5 mM EDTA and 50 mM Hepes-Na^+ pH 7.5, in a total volume of 0.5 ml. MDCK homogenate was centrifuged at 600×g briefly, then at 100,000×g for 1 h, and the pellet was suspended in water and sonicated with a dipping probe. A portion of this suspension containing 300 μg of protein was used. Incubation was at 37° C. for 30 min, after which the lipids were treated as above, using C-M-W 60:35:8 for the isolation of the labeled decanoyl SM.

[6] = system: MDCK cells; test: Lipid changes in MDCK cells (GlcCer, ceramide, diacylglycerol); format: cell-based, canine; conditions: 24 h

SMILES	IC50 [1]	level of GlcCer, estimated visually (TLC) ([2]; 0.3 μM)	Ceramide ([2]; 0.4 μM)	Diglyceride ([2]; 0.4 μM)	Ceramide ([2]; 4 μM)	Diglyceride ([2]; 4 μM)	Sphingomyelinase pH 4.5, enzyme activity (% of control) ([3]; 5 μM)	Sphingomyelinase pH 4.5, enzyme activity (% of control) ([3]; 50 μM)	Sphingomyelinase pH 7.1, enzyme activity (% of control) ([4]; 5 μM)	Sphingomyelinase pH 7.1, enzyme activity (% of control) ([4]; 50 μM)	Sphingomyelinase Synthase, enzyme activity (% of control) ([5]; 5 μM)	Sphingomyelinase Synthase, enzyme activity (% of control) ([5]; 50 μM)	inhibition of sphingomyelin synthase ([5]; 50 μM)	ceramide concentration, TLC densitometry ([6]; 0.5 μM)	ceramide concentration, TLC densitometry ([6]; 1 μM)	ceramide concentration, TLC densitometry ([6]; 2 μM)	ceramide concentration, TLC densitometry ([6]; 4 μM)	level of GlcCer, estimated visually (TLC) ([2]; 0.5 μM)	ceramide concentration, TLC densitometry, compared with BML-130 ([6]; various concentrations)
CCCCCCCCCCCCCCCC(=O)NC(CN1CCCC1)C(O)c1ccccc1 (racemic) [BML-130]	2 µM	greatly lowered	0.94 nmol/mg protein and 0.87 nmol/mg protein	4.73 nmol/mg protein and 5.65 nmol/mg protein	5.41 nmol/mg protein and 3.34 nmol/mg protein	11.9 nmol/mg protein and 8.71 nmol/mg protein	109 ± 1 % of control	114 ± 2 % of control	110 ± 7 % of control	152 ± 14 % of control	87 ± 14 % of control	39 ± 18^b % of control	61%	1.0 nmol/mg protein	1.1 nmol/mg protein	1.5 nmol/mg protein	3.3 nmol/mg protein	–	–
CCCCCCCCCCCCCCCC(=O)NC(CN1CCCC1)C(O)c1ccccc1 (racemic) [BML-129]	2 µM	–	0.99 nmol/mg protein and 1.29 nmol/mg protein	5.13 nmol/mg protein and 5.51 nmol/mg protein	3.57 nmol/mg protein and 3.78 nmol/mg protein	9.30 nmol/mg protein and 9.68 nmol/mg protein	108 ± 4 % of control	97 ± 3 % of control	105 ± 11 % of control	142 ± 11^b % of control	84 ± 27 % of control	46 ± 11^b % of control	54%	–	–	–	–	greatly lowered	virtually identical
